Measured values from ChEMBL document CHEMBL6134791, “Stereochemical optimization of N,2-substituted cycloalkylamines as norepinephrine reuptake inhibitors” (RSC Med Chem, 2024).

biological target: Sodium-dependent noradrenaline transporter (Homo sapiens, UniProt P23975); assay: Inhibition of NET (unknown origin) expressed in Jump In T-REx HEK293 cells assessed as decrease in norepinephrine-induced cellular response preincubated for 1 hr followed by norepinephrine stimulation measured for 30 mins by TRACT assay; type: cell-based
Sequence (P23975 whole entry): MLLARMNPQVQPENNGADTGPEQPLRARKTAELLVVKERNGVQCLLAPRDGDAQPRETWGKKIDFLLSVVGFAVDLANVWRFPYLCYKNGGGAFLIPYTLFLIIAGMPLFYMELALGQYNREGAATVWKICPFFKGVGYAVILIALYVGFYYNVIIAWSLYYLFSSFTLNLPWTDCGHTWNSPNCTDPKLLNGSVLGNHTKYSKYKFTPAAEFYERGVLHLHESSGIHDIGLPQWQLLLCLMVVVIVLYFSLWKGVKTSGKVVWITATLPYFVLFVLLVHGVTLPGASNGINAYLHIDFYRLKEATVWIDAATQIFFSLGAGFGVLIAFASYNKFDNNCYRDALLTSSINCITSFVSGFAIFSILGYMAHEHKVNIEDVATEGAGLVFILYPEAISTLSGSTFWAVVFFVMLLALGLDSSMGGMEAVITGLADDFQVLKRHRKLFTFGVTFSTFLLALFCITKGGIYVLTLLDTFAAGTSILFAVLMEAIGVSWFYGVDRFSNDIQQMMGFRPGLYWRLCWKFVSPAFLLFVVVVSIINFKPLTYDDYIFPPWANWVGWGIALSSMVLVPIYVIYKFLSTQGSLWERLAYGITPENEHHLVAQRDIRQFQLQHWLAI

SMILES | IC50
COC(=O)CCCNC1CCCC1c1ccc(Cl)c(Cl)c1 (configuration not stated) | 0.158 µM
CCCCNC1CCCC1c1ccc(Cl)c(Cl)c1 (configuration not stated) | 0.251 µM
CNCCCCNC1CCCC1c1ccc(Cl)c(Cl)c1 (configuration not stated) | 0.316 µM
OCCCCNC1CCCCC1c1ccc(Cl)c(Cl)c1 (configuration not stated) | 0.501 µM
Clc1ccc(C2CCCC2NCc2ccccc2)cc1Cl (configuration not stated) | 0.631 µM

The next compounds have a lower IC50 than those just listed; values first:

IC50 | SMILES
0.0794 µM | OCCNC1CCCC1c1ccc(Cl)c(Cl)c1 (configuration not stated)
0.1 µM | COCCCCNC1CCCC1c1ccc(Cl)c(Cl)c1 (configuration not stated)
